Results published in publication PMC9374667 (Communications Biology, 2022).
“And” between values parts separate entries of the source, which are not always exact repeats. Equal values may be shown once.

What was measured:
[1] = system: TNF-α, IL-6, MCP-1, F4/80 (Adgre1), CD11c (Itgax); assay: qRT-PCR of inflammatory related genes and macrophage marker genes in eWAT; assay type: in vivo, mice; parameters: key to Tnf-α / IL-6 / Ccl2 / Adgre1 / Itgax: relative expression normalized to gapdh, 2^-ΔΔCt method
Text: Total RNA was isolated from 3T3-L1 cells and adipose tissue homogenates using Trizol reagent (Invitrogen, Carlsbad, CA, USA). RNA concentration and purity were examined at 260/280 nm using a nanodrop spectrophotometer (NanoDrop One, Thermo Fisher Scientific, USA). The total RNA was reverse transcribed to cDNA using the EasyScript All-in-One First-Strand cDNA Synthesis SuperMix for qPCR kit (TransGen Biotech, Beijing, China). The quantitative reverse transcription polymerase chain reaction was performed using TransStart Top Green qPCR SuperMix (TransGen Biotech, Beijing, China) and an Applied Biosystems 7500 RealTime PCR System (Life Technologies, USA). Relative expression levels were normalized to gapdh expression and quantified using the 2^-ΔΔCt method. The primers were synthesized by Shanghai Sangon Biotech, and the detailed primer sequences were shown in Supplementary Table 5 in the supplementary materials.

3T3-L1 adipocytes = assay: Immunofluorescence staining of UCP1 and MitoTracker; assay type: cell-based, Murine; parameters: key: mean fluorescence intensity measured in ImageJ; conditions: Figure 7d; 10uM BBR; replicates
Protocol: The 3T3-L1 adipocytes were washed with PBS for 3 times, fixed with 4% paraformaldehyde solution for 30 min, and then washed again for 3 times. […] The cells were then incubated overnight at 4 °C with the appropriate primary antibodies (1:100 dilution). The next day, the 3T3-L1 adipocytes were washed and incubated at room temperature with goat anti-rabbit secondary antibody or goat anti-mouse secondary antibody (1:1000 dilution) for 2 h and washed with PBS for 3 times. The nuclei were stained with DAPI. […] Fluorescence images were taken using a laser confocal microscope (SP8, Leica, Germany). At least four images per section were acquired for quantification, and the mean intensity were evaluated using ImageJ.

cAMP, glycerol release = assay: cAMP levels and glycerol release in TNF-α induced 3T3-L1 adipocytes (isoproterenol); assay type: cell-based, Murine
Protocol: The epididymal adipose tissue was dissected, the fresh adipose tissue was weighed and rapidly rinsed with PBS. The adipose tissue was cut and incubated with isoproterenol (10 μM) for 2 h, and homogenized in a cold cleavage buffer to prepare the adipose tissue homogenate. Then the homogenate was centrifuged at 12,000 × g at 4 °C for 15 min, and the supernatant was collected. […] Then the cells were lysed in a petri dish, scraped off, and centrifuged at 12,000 × g at 4 °C for 15 min before the supernatant was collected. […] And concentrations were further standardized according to protein concentration.

IKKε = target: T1, IKKε (Mus musculus, UniProt Q9R0T8); assay: IKKε activity assay in eWAT; assay type: in vivo, mice; parameters: The adipose tissue was ultrasound-crushed in PBS buffer solution (1:9 w/v) to prepare the tissue homogenate; from tissue; host or cells: epididymal white adipose tissue (eWAT) and brown adipose tissue (BAT) of C57BLKS WT and db/db mice; conditions: for the expression of IKKε in eWAT of db/db mice: Figure 6b, individual values
T1 sequence (Q9R0T8 1-717): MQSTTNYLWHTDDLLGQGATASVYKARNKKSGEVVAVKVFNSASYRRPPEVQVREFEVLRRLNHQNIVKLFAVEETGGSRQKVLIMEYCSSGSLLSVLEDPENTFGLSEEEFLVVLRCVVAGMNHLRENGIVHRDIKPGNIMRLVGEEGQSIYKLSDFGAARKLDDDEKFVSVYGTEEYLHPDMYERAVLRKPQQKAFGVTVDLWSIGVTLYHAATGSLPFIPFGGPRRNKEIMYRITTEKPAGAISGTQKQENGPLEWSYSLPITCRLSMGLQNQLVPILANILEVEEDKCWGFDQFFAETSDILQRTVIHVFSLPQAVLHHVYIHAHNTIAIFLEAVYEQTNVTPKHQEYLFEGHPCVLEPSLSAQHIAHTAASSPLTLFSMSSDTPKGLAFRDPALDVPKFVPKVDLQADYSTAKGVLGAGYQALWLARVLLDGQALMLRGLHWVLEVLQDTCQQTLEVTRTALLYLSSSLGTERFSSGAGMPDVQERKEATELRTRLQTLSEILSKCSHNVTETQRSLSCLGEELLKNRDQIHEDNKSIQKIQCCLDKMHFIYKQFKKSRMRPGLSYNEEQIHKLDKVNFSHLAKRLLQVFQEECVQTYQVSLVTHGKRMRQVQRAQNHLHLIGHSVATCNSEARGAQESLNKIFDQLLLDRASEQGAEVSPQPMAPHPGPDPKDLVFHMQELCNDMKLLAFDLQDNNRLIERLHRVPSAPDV
Protocol: The adipose tissue was ultrasound-crushed in PBS buffer solution (1:9 w/v) to prepare the tissue homogenate. The tissue homogenate was centrifuged at 5000 × g for 10 min, and the supernatant was taken for detection. Briefly, samples or standards were added to the microplates pre-coated with IKKε antibody or TBK1 antibody. Then horseradish peroxidase (HRP) labeled antibody was added and incubated at 37 °C for 60 min. After thorough washing, the 3,3′,5,5′-tetramethylbenzidine (TMB) substrate was used for color development, and the absorbance (OD value) was determined at 450 nm.

[2] = Figure 5g, BBR 150mg/kg, replicates, first Veh value = 1

Compound | Adgre1 [1, 2] | Ccl2 [1, 2] | IL-6 [1, 2] | Itgax [1, 2] | Tnf-α [1, 2] | mRNA levels of TNF-α, IL-6, MCP-1, F4/80 (Adgre1) and CD11c (Itgax) in eWAT ([1]; db/db mice, 5 weeks of treatment, vs vehicle) | MitoTracker (3T3-L1 adipocytes) | UCP1 (3T3-L1 adipocytes) | Glycerol release in differentiated 3T3-L1 adipocytes induced by TNF-α (cAMP, glycerol release; BJ) | cAMP levels in differentiated 3T3-L1 adipocytes induced by TNF-α (cAMP, glycerol release; BJ) | Glycerol release in differentiated 3T3-L1 adipocytes induced by TNF-α (cAMP, glycerol release; BJ+TNF-α(50ng/ml)) | cAMP levels in differentiated 3T3-L1 adipocytes induced by TNF-α (cAMP, glycerol release; BJ+TNF-α(50ng/ml)) | Glycerol release in differentiated 3T3-L1 adipocytes induced by TNF-α (cAMP, glycerol release; ISO+BJ) | cAMP levels in differentiated 3T3-L1 adipocytes induced by TNF-α (cAMP, glycerol release; ISO+BJ) | Glycerol release in differentiated 3T3-L1 adipocytes induced by TNF-α (cAMP, glycerol release; ISO+BJ+TNF-α(50ng/ml)) | cAMP levels in differentiated 3T3-L1 adipocytes induced by TNF-α (cAMP, glycerol release; ISO+BJ+TNF-α(50ng/ml)) | Glycerol release and cAMP levels (cAMP, glycerol release; TNF-α induced 3T3-L1 adipocytes, BJ pretreatment, isoproterenol stimulation) | the expression of IKKε in eWAT of db/db mice (IKKε; db/db+BJ 75mg/kg) | the expression of IKKε in eWAT of db/db mice (IKKε; db/db+BJ 150mg/kg) | IKKε kinase activity in eWAT (IKKε; db/db mice, both doses of BJ (75 and 150 mg/kg))
COc1ccc2cc3[n+](cc2c1OC)CCc1cc2c(cc1-3)OCO2 [BBR, Berberine chloride dihydrate] | 0.3 and 0.2426 and 0.368 | 0.8769 and 0.7967 and 0.7737 | 0.5766 and 0.5775 and 0.5396 | 0.806 and 0.855 and 0.8182 | 0.6975 and 0.7551 and 0.7391 | reduced the mRNA levels | 25.545 and 18.064 and 22.543 and 21.627 and 16.023 and 19.205 and 20.957 and 15.64 and 24.469 and 20.477 and 21.808 and 21.524 | 28.534 and 25.717 and 23.768 and 26.01 and 16.988 and 23.573 and 17.055 and 20.669 and 24.128 and 20.8 and 21.801 and 21.746 |  |  |  |  |  |  |  |  |  |  |  | 
CC(C)Cc1ccc(C(C)C(=O)[O-])cc1.COc1ccc2cc3[n+](cc2c1OC)CCc1cc2c(cc1-3)OCO2.O.O.O.O [BJ, berberine-ibuprofen] |  |  |  |  |  |  |  |  | 92.8546 µmol/L and 97.0733 µmol/L and 93.6983 µmol/L | 0.2237 pmol/mg protein and 0.2235 pmol/mg protein and 0.2307 pmol/mg protein | 63.3237 µmol/L and 59.9487 µmol/L and 58.2612 µmol/L | 0.1653 pmol/mg protein and 0.1544 pmol/mg protein and 0.1605 pmol/mg protein | 186.51 µmol/L and 191.572 µmol/L and 183.135 µmol/L | 0.3839 pmol/mg protein and 0.37 pmol/mg protein and 0.3787 pmol/mg protein | 167.104 µmol/L and 166.26 µmol/L | 0.248 pmol/mg protein and 0.2422 pmol/mg protein and 0.2461 pmol/mg protein | promoted glycerol release, increased cAMP levels | 0.731 U/g and 0.653 U/g and 0.634 U/g and 0.668 U/g and 0.673 U/g and 0.708 U/g | 0.443 U/g and 0.517 U/g and 0.416 U/g and 0.438 U/g and 0.466 U/g and 0.49 U/g | significantly reduced
